The source made the active and inactive calls.
Experiments:
Ion channel NompC = Ion channel NompC (Danio rerio, UniProt Q7T1G6); test: Dose response cell-based high-throughput screening assay for agonists of the transient receptor potential channel N1 (TRPN1). [Related pubchem assays (depositor defined):AID1424, AID1448]; format: functional
Mucolipin-3 = molecular target: T1, Mucolipin-3 (Homo sapiens, UniProt Q8TDD5); test: Fluorescence counterscreen assay for […] agonists: dose response cell-based high-throughput screening assay to identify agonists of the transient receptor potential channel ML3 (TRPML3). [Related pubchem assays: 1424, 1448 ]; format: functional
T1 sequence (Q8TDD5 whole entry): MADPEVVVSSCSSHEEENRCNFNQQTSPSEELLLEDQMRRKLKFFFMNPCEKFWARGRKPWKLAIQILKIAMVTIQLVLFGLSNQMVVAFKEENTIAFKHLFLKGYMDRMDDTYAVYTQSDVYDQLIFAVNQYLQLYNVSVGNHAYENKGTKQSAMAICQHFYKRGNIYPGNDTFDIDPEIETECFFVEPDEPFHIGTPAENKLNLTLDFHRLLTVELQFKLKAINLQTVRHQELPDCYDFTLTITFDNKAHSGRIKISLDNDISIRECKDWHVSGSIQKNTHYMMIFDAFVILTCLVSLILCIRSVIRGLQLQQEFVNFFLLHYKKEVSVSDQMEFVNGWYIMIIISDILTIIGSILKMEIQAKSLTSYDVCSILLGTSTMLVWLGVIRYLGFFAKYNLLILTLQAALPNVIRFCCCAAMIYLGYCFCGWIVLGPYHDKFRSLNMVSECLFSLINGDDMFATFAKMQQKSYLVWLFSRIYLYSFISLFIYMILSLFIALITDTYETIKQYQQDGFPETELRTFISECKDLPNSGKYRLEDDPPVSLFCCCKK

Cannabinoid receptor 2 [1] = molecular target: T2, Cannabinoid receptor 2 (Homo sapiens, UniProt P34972); test: SAR analysis of antagonists of the Cannabinoid Receptor 2 using an Image-Based Assay - Set 2. [Related pubchem assays (depositor defined):AID1961, AID1965]; format: functional
T2 sequence (P34972 whole entry): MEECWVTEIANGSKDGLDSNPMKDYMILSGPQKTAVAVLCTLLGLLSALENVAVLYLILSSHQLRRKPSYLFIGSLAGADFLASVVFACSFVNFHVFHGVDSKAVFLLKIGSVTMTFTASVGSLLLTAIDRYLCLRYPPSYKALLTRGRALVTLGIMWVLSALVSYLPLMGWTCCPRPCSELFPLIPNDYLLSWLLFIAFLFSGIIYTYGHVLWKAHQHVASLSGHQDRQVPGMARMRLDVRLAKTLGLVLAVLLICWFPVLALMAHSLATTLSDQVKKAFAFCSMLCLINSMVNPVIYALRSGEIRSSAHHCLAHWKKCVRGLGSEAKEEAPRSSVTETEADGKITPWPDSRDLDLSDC

[2] = molecular target: G-protein coupled receptor 55 (Homo sapiens, UniProt Q9Y2T6); test: SAR analysis of selective Agonists of GPR55 using an Image-Based Assay - Set 2. [Related pubchem assays (depositor defined):AID1961, AID1965]; format: functional
Chain of G-protein coupled receptor 55 (Q9Y2T6 whole entry): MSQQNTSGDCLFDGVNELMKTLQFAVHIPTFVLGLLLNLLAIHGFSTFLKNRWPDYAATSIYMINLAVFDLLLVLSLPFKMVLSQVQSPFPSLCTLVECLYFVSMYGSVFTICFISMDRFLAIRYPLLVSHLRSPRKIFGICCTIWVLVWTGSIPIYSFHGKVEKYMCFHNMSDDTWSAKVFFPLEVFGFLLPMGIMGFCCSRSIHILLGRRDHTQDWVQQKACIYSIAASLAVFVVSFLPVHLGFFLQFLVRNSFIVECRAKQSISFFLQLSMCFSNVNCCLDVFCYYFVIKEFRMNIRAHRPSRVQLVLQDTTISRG

Cannabinoid receptor 2 [3] = molecular target: T2, Cannabinoid receptor 2; test: SAR analysis of agonists of the Cannabinoid Receptor 2 using an Image-Based Assay - Set 2. [Related pubchem assays (depositor defined):AID1961, AID1965]; format: functional
[4] = molecular target: T3, G-protein coupled receptor 35 (Homo sapiens, UniProt Q9HC97); test: SAR analysis of Agonists of the GPR35 Receptor using an Image-Based Assay - Set 3. [Related pubchem assays (depositor defined):AID1961, AID1965]; format: functional
T3 sequence (Q9HC97 whole entry): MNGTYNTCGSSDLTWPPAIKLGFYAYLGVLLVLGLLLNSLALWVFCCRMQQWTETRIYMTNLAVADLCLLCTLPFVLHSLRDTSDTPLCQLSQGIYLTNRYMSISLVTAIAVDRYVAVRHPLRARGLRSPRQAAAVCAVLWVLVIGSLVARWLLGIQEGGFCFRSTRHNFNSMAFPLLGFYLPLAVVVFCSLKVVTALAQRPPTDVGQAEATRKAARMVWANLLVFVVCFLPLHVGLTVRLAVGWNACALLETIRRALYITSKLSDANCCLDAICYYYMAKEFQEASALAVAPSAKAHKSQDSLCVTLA

Cannabinoid receptor 1 [5] = molecular target: T4, Cannabinoid receptor 1 (Homo sapiens, UniProt P21554); test: SAR analysis of antagonists of the Cannabinoid Receptor 1 using an Image-Based Assay - Set 3. [Related pubchem assays (depositor defined):AID1961, AID1965]; format: functional
T4 sequence (P21554 whole entry): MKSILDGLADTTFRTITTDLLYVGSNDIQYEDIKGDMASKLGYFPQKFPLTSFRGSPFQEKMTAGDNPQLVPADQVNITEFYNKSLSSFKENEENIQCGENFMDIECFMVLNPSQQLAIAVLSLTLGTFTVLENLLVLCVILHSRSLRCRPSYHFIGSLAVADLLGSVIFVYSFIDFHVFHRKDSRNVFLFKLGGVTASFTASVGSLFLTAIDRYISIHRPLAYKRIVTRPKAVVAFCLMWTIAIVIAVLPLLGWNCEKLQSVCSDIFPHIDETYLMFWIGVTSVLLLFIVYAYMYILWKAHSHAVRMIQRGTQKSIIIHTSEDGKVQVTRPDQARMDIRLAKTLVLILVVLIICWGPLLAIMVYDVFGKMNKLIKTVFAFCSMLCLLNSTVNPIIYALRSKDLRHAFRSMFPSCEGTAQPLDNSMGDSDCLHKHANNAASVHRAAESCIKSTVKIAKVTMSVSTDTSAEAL

Cannabinoid receptor 1 [6] = molecular target: T4, Cannabinoid receptor 1; test: SAR analysis of agonists of the Cannabinoid Receptor 1 using an Image-Based Assay - Set 3. [Related pubchem assays (depositor defined):AID1961, AID1965]; format: functional
[7] = molecular target: T3, G-protein coupled receptor 35; test: SAR analysis of Antagonists of the GPR35 Receptor using an Image-Based Assay - Set 4. [Related pubchem assays (depositor defined):[…]]; format: functional
Large T antigen = Large T antigen (Simian virus 40, UniProt P03070); format: functional, Betapolyomavirus macacae;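 further: Confirmatory-stage PubChem screen for compounds that inhibit SV40 T antigen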
Chain of Large T antigen (P03070 whole entry): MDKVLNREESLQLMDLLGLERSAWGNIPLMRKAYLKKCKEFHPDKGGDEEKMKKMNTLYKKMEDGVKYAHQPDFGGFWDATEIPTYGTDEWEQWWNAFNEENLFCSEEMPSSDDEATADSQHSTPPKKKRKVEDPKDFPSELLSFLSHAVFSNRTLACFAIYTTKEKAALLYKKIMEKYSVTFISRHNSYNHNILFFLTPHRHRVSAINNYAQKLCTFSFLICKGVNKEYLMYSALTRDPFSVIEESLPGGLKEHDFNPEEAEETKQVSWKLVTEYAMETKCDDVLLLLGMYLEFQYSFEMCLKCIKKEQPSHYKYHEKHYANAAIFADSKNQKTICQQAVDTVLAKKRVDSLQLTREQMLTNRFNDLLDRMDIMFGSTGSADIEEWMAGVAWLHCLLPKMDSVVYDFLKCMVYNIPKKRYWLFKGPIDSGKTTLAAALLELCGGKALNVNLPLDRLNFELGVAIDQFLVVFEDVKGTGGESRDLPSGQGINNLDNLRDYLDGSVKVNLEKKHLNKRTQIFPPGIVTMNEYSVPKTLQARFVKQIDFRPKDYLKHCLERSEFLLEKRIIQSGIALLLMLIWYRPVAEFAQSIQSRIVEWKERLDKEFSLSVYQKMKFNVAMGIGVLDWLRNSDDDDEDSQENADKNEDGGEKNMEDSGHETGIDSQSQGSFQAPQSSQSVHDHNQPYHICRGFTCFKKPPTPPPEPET

Trypsin = Trypsin (Sus scrofa, UniProt P00761); test: porcine trypsin inhibitors, dose response, selectivity assay for Rce1 protease inhibitor project, biochemical, quenched peptide fluorescence, cherry-pick (AID 488789)
Chain of Trypsin (P00761 whole entry): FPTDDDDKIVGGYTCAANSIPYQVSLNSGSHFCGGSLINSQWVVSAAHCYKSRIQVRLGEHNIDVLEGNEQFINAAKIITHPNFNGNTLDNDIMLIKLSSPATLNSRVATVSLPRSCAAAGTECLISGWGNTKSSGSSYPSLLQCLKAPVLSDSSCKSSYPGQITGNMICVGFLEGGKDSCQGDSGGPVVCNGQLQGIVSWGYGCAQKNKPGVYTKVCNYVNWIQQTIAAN

Caspase-3 = molecular target: T5, Caspase-3 (Homo sapiens, UniProt P42574); format: functional;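 further: Dose-response selectivity test against caspase-3 for candidate inhibitors of sentrin-specific proteases (SENPs)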
T5 sequence (P42574 whole entry): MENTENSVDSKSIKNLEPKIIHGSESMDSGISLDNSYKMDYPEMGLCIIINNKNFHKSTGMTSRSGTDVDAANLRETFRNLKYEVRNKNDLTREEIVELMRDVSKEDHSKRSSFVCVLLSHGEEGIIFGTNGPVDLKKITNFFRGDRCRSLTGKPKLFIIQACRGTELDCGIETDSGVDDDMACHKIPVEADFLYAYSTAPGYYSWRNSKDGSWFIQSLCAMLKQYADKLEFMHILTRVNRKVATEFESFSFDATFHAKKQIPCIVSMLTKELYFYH

[8] = molecular target: T6, Sentrin-specific protease 7 (Homo sapiens, UniProt Q9BQF6); format: functional;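 further: Luminescence-based dose-response confirmation of ultra-high-throughput screening hits, measuring inhibition of SENP7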
T6 sequence (Q9BQF6 whole entry): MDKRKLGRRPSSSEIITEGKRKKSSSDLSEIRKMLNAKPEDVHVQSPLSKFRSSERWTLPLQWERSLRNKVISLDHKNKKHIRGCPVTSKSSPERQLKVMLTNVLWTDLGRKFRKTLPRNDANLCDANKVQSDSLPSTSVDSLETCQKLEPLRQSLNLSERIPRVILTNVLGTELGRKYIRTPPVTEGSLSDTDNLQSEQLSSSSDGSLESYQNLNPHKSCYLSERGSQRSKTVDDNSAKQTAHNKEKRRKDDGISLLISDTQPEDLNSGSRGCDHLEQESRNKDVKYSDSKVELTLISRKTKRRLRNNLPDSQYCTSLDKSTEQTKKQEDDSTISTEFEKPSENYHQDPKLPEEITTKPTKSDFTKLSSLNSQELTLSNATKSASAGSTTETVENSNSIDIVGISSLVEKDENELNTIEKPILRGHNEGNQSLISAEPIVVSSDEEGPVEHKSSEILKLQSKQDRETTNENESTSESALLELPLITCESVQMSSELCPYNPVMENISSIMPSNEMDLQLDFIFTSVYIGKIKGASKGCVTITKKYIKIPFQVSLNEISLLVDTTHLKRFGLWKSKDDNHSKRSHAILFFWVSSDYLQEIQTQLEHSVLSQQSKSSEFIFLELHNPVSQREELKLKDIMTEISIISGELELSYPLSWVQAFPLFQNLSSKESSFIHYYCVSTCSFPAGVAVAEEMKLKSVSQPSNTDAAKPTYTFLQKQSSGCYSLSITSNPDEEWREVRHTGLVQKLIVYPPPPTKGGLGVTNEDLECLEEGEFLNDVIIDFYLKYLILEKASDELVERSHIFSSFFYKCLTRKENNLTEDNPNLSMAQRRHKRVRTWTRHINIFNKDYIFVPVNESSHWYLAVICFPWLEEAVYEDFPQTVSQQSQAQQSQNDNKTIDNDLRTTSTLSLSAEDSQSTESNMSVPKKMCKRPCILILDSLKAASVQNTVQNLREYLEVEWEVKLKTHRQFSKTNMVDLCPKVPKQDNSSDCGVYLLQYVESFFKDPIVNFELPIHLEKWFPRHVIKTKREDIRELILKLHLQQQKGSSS

[9] = molecular target: T7, Sentrin-specific protease 6 (Homo sapiens, UniProt Q9GZR1); format: functional;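 further: Luminescence-based dose-response confirmatory assay of SENP6 inhibition, following up an ultra-high-throughput screen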
T7 sequence (Q9GZR1 whole entry): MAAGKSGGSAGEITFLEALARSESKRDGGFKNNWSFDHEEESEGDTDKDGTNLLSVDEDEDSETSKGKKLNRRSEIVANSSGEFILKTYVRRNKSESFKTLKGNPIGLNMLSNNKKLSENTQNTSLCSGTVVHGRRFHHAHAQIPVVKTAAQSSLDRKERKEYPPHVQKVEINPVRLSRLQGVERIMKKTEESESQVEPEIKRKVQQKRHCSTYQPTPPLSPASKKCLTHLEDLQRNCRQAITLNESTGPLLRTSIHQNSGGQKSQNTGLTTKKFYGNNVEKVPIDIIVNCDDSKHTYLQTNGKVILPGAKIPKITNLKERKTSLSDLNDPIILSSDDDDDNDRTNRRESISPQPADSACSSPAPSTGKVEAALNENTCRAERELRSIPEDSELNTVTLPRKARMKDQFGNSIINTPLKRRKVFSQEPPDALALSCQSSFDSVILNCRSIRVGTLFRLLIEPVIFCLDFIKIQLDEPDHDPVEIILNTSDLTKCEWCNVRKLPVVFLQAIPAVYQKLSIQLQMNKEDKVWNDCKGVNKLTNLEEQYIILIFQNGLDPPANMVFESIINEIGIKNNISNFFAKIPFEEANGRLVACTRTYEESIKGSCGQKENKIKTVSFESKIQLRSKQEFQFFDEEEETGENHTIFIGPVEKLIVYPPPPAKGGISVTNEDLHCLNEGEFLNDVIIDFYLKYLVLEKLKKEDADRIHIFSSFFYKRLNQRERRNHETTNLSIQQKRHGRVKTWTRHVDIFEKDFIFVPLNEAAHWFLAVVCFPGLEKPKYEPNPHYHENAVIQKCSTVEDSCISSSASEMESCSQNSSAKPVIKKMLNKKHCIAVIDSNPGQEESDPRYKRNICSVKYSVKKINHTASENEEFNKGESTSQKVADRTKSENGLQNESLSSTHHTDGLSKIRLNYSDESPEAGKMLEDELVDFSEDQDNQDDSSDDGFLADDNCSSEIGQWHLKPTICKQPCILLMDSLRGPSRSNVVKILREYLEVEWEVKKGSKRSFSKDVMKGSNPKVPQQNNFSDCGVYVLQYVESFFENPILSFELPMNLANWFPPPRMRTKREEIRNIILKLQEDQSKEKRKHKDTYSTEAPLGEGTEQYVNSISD

[10] = molecular target: T8, Sentrin-specific protease 8 (Homo sapiens, UniProt Q96LD8); format: functional;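 further: luminescence read-out of SENP8 inhibition, dose-response confirmation following an ultra-high-throughput screen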
T8 sequence (Q96LD8 whole entry): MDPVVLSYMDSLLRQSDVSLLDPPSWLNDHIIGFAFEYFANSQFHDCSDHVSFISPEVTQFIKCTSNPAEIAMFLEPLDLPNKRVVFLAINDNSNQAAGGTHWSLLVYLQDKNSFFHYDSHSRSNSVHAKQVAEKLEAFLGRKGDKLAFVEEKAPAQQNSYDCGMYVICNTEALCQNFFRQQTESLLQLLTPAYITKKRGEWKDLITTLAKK

CAAX prenyl protease 1 = CAAX prenyl protease 1 (Saccharomyces cerevisiae S288c, UniProt P47154); test: Ste24 protease inhibitors, dose response, biochemical, S. cerevisiae, plate reader, cherry-pick (AID 488815)
Chain of CAAX prenyl protease 1 (P47154 whole entry): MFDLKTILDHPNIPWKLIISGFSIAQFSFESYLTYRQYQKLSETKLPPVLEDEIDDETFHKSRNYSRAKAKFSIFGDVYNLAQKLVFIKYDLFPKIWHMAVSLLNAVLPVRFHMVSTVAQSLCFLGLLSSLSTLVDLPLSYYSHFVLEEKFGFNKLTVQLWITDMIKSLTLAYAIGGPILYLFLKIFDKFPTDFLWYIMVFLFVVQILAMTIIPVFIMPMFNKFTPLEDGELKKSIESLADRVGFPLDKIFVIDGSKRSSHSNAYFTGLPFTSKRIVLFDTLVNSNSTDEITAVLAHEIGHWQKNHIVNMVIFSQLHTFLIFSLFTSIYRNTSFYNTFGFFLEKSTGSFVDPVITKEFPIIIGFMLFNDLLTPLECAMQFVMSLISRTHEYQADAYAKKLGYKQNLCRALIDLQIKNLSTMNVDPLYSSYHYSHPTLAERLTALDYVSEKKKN

CAAX prenyl protease 2 = molecular target: T9, CAAX prenyl protease 2 (Homo sapiens, UniProt Q9Y256); test: human Rce1 protease inhibitors, dose response, biochemical, yeast membranes, quenched-peptide fluorescence, cherry-pick (AID 588849)
T9 sequence (Q9Y256 whole entry): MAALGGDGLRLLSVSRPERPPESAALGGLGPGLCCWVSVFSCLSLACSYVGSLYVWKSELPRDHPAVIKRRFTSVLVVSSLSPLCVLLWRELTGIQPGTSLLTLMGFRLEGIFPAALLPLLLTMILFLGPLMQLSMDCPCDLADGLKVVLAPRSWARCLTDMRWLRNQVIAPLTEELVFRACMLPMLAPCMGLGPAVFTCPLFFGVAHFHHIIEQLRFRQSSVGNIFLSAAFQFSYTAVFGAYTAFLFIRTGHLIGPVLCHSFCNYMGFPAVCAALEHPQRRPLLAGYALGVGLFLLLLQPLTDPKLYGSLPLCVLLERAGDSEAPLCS

Kallikrein-7 = Kallikrein-7 (Homo sapiens, UniProt P49862); test: Fluorescence Intensity-based biochemical primary high throughput dose response assay to identify activators of kallikrein-7 (K7) zymogen.
Chain of Kallikrein-7 (P49862 whole entry): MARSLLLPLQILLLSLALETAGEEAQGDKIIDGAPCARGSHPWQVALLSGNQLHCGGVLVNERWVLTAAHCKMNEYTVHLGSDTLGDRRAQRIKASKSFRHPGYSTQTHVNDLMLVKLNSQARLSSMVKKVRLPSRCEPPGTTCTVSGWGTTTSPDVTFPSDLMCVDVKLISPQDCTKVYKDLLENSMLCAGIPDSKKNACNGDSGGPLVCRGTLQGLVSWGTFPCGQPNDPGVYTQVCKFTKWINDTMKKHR

Tumor necrosis factor = Tumor necrosis factor (Homo sapiens, UniProt P01375); test: TNFa-triggered NF-kB activation inhibitors, SAR follow-up, cell-based, revised (AID 2337); format: functional
Chain of Tumor necrosis factor (P01375 whole entry): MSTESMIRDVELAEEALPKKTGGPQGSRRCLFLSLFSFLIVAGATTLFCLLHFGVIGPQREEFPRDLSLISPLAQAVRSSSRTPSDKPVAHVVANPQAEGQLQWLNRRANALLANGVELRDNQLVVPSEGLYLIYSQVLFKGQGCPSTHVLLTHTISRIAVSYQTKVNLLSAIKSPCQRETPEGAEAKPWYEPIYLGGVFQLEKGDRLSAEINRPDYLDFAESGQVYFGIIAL

HEK293 = test: cells; details: Homo sapiens;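 further: cells exposed to compound for 14 hours overnight before viability readout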

Chain of Ion channel NompC (Q7T1G6 whole entry): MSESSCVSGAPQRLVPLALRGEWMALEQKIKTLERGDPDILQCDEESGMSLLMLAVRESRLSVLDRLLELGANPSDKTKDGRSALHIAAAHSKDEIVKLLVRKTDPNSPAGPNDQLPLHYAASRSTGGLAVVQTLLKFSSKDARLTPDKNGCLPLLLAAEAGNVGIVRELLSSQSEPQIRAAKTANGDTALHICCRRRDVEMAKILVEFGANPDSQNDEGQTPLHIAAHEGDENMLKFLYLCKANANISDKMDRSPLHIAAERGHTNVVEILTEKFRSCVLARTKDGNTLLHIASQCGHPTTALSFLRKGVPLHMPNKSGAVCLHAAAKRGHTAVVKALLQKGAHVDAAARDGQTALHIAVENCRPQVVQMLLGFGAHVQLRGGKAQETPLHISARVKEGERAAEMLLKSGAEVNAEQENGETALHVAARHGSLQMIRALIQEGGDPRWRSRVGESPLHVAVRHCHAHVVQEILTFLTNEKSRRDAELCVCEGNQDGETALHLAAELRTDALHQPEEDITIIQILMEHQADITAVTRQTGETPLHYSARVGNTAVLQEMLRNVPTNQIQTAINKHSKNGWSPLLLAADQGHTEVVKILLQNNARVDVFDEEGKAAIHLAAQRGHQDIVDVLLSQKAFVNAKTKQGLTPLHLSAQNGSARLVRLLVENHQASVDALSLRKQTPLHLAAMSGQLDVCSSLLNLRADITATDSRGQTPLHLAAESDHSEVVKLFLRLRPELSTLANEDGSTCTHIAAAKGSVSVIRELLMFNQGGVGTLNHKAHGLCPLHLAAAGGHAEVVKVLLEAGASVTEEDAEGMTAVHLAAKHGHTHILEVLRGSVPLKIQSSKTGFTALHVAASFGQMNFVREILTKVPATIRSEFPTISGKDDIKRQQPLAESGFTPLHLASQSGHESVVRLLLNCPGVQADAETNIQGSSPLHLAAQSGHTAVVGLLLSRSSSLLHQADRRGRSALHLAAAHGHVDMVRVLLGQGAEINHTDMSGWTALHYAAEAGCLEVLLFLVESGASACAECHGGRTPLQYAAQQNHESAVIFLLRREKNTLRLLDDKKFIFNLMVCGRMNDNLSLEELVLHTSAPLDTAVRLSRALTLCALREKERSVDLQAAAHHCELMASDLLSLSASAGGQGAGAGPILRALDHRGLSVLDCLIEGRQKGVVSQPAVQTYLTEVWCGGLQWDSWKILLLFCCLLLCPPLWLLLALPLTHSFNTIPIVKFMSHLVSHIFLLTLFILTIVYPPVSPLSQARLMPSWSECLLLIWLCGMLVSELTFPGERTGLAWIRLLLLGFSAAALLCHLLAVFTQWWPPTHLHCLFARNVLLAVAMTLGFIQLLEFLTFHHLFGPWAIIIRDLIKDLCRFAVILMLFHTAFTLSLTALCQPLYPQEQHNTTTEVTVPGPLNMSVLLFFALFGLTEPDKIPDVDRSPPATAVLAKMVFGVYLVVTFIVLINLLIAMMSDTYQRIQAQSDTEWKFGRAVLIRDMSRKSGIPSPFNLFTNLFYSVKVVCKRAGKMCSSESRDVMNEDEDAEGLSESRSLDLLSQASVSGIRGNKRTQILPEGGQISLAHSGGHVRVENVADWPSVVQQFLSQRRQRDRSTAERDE

Row | SMILES | IC50 (Cannabinoid receptor 2 [1]) | EC50 [2] | EC50 (Cannabinoid receptor 2 [3]) | EC50 [4] | IC50 (Cannabinoid receptor 1 [5]) | EC50 (Cannabinoid receptor 1 [6]) | IC50 [7] | AC50 (Trypsin) | AC50 (CAAX prenyl protease 1) | AC50 (CAAX prenyl protease 2) | other results
1 | Cc1ccc(NS(=O)(=O)c2ccc(C(=O)OCC(=O)Nc3cc(C)on3)cc2)cc1 | – | – | – | – | – | – | – | – | – | – | EC50 (Ion channel NompC): > 29.9 µM (inactive); EC50 (Mucolipin-3): > 29.9 µM (not active)
2 | O=C(Nc1cc(S(=O)(=O)N2CCOCC2)ccc1OCC(F)(F)F)c1ccc(N2CCCC2=O)cc1 | > 32 µM (inactive) | > 32 µM (inactive) | > 32 µM (inactive) | > 32 µM (inactive) | > 32 µM (inactive) | > 32 µM (inactive) | > 32 µM (inactive) | – | – | – | –
3 | Oc1ccc(-c2nc3ccccn3c2NCc2ccco2)cc1 | – | – | – | – | – | – | – | 10.8 µM (active) | 4.39 µM (active) | 6.52 µM (active) | IC50 (Large T antigen): 11.4 µM (active); IC50 (Caspase-3): 17.6 µM (active); IC50 [8]: 16 µM (active); IC50 [9]: 54.4 µM (active); IC50 [10]: 81.9 µM (active)
4 | CCOc1ccc(S(=O)(=O)N2CCOCC2)cc1NC(=O)c1ccc(N2CCCC2=O)cc1 | > 32 µM (inactive) | > 32 µM (inactive) | > 32 µM (inactive) | > 32 µM (inactive) | 4.98 µM (active) | > 32 µM (inactive) | > 32 µM (inactive) | – | – | – | –
5 | CCC(C)NC(=O)c1cc2c(=O)n3cccc(C)c3nc2s1 (stereo not given) | – | – | – | – | – | – | – | 28.5 µM (active) | 1.72 µM (active) | 6.01 µM (active) | EC50 (Kallikrein-7): > 69.6 µM (inactive)
6 | CC(=O)N1CCc2cc(S(=O)(=O)N3CCN(c4ccc([N+](=O)[O-])cc4)CC3)ccc21 | – | – | – | – | – | – | – | – | – | – | IC50 (Tumor necrosis factor): > 20 µM (inactive); IC50 (HEK293): > 20 µM (inactive)
